Patent US11214803B2, “Modulators of YAP1 expression” (Ionis Pharmaceuticals, Inc., priority 2019, dated 2022)
Strand notation (5' to 3'): a small letter for the sugar, then the base; units joined by * are phosphorothioate-linked, units joined directly phosphodiester-linked; [ ] holds rarer units or linkages, { } end groups; capitals alone tell only the bases. k = constrained ethyl (cEt); [5mC] = 5-methylcytosine; d = 2'-deoxy (DNA)

tested on: Yap1 mRNA; test: Antisense inhibition of human Yap1 in A-431 cells by cEt gapmers, single dose (Example 4, RTS4814); assay type: cell-based; conditions: Table 14; A-431 cells, 5,000 cells per well, free uptake, 2,000 nM, approximately 48 hours; RTS4814; normalized to RIBOGREEN; Yap1 mRNA relative to untreated control; * = targets amplicon region of primer probe set
Summary of the method: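 Values are % UTC: Yap1 mRNA by quantitative RT-PCR, normalized to RIBOGREEN total RNA. Cells were exposed ~48 h to 2,000 nM oligonucleotide without transfection. Oligonucleotides were 16-nucleoside gapmers with three cEt nucleosides per wing, ten-deoxy gap, P=S linkages throughout.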

Row | Substance | YAP1 (% UTC)
1 | 1075904 (kG*kT*kA*dT*dA*dG*dG*dA*dT*d[5mC]*dT*dA*d[5mC]*kT*kA*kA; antisense) [Compound 1075904] | 51
2 | 1075232 (antisense kA*kT*kT*dT*dA*dT*d[5mC]*dA*dG*d[5mC]*d[5mC]*dA*dT*kT*kG*kT) [Compound 1075232] | 13
3 | 1075392 (kG*kA*k[5mC]*dG*dG*dG*dT*dG*dA*dA*d[5mC]*d[5mC]*dT*kG*kT*kT; antisense) [Compound 1075392] | 95
4 | 1075840 (k[5mC]*k[5mC]*kT*dA*dA*dA*dA*dT*dA*dG*dG*dA*dA*kT*kG*k[5mC]; antisense) [Compound 1075840] | 89
5 | 1075808 (kG*k[5mC]*kA*dA*dT*dA*dG*dA*dG*dT*dA*dA*d[5mC]*k[5mC]*kA*kG; antisense) [Compound 1075808] | 3
6 | 1075072 (antisense kT*k[5mC]*k[5mC]*dG*dG*dG*dT*dA*dA*dA*dT*dA*dT*k[5mC]*kT*k[5mC]) [Compound 1075072] | 37
7 | 1075040 (antisense kT*kT*kA*dT*dA*dA*dA*dG*dA*dG*dG*d[5mC]*dT*k[5mC]*kA*kG) [Compound 1075040] | 10
8 | 1075168 (antisense k[5mC]*kA*kT*d[5mC]*dA*dA*dA*dA*dT*dT*dT*d[5mC]*dA*k[5mC]*kG*kA) [Compound 1075168] | 49
9 | 1074816 (kG*kA*kA*dT*dA*dT*dT*dG*d[5mC]*d[5mC]*dA*d[5mC]*d[5mC]*k[5mC]*kA*k[5mC]; antisense) [Compound 1074816] | 15
10 | 1075744 (kT*kT*k[5mC]*dG*dG*dG*dT*dT*dA*dG*d[5mC]*dA*dG*kA*k[5mC]*kT; antisense) [Compound 1075744] | 6
11 | 1075424 (antisense kT*kT*kA*dT*dT*dA*dA*dT*d[5mC]*d[5mC]*dT*dG*dT*k[5mC]*k[5mC]*kA) [Compound 1075424] | 18

same assay, conditions: Table 15; A-431 cells, 5,000 cells per well, free uptake, 2,000 nM, approximately 48 hours; RTS4814; normalized to RIBOGREEN; Yap1 mRNA relative to untreated control; * = targets amplicon region of primer probe set

Row | Substance | YAP1 (% UTC)
12 | 1075393 (k[5mC]*kT*kT*dA*dA*d[5mC]*d[5mC]*dT*dA*dT*dG*d[5mC]*d[5mC]*kA*kA*kA; antisense) [Compound 1075393] | 37
13 | 1074241 (antisense kG*kA*kT*dG*dT*d[5mC]*dT*dT*dT*dG*d[5mC]*d[5mC]*dA*kT*k[5mC]*kT) [Compound 1074241] | 72
14 | 1074721 (antisense kG*kG*kA*dA*dG*dA*dT*d[5mC]*dT*d[5mC]*d[5mC]*dA*dT*kA*kT*kT) [Compound 1074721] | 43
15 | 1075201 (antisense k[5mC]*kT*kT*dT*dA*dA*dA*dG*d[5mC]*d[5mC]*d[5mC]*dT*dA*kA*kT*kT) [Compound 1075201] | 114
16 | 1074401 (antisense kT*k[5mC]*k[5mC]*dG*dG*dT*dG*d[5mC]*dA*dT*dG*dT*dG*kT*k[5mC]*kT) [Compound 1074401] | 18
17 | 1075425 (antisense kA*kT*kT*dA*dT*dT*dA*dA*dT*d[5mC]*d[5mC]*dT*dG*kT*k[5mC]*k[5mC]) [Compound 1075425] | 26
18 | 1075745 (k[5mC]*kT*kT*d[5mC]*dA*dA*dA*dA*dG*d[5mC]*dA*d[5mC]*dG*kG*kT*kG; antisense) [Compound 1075745] | 58
19 | 1075649 (k[5mC]*kT*kT*d[5mC]*dA*dA*dT*dA*dA*dA*dG*dT*dG*kG*kG*kA; antisense) [Compound 1075649] | 56
20 | 1074625 (antisense kA*kT*kA*dA*dG*dG*dG*d[5mC]*dT*dT*dA*dT*dT*k[5mC]*kT*kA) [Compound 1074625] | 42
21 | 1075521 (kA*kA*kA*dT*d[5mC]*dG*dA*dG*dG*d[5mC]*dG*dA*dA*kT*k[5mC]*kT; antisense) [Compound 1075521] | 65
22 | 1075137 (antisense kG*kA*kT*dT*dA*dA*dA*dT*dA*d[5mC]*dT*dG*dA*k[5mC]*k[5mC]*kA) [Compound 1075137] | 3
23 | 1075265 (antisense kT*k[5mC]*kT*dG*dA*dA*dT*dA*dA*dT*dA*dT*dG*k[5mC]*kA*kG) [Compound 1075265] | 44

same assay, conditions: Table 16; A-431 cells, 5,000 cells per well, free uptake, 2,000 nM, approximately 48 hours; RTS4814; normalized to RIBOGREEN; Yap1 mRNA relative to untreated control cells

Row | Substance | YAP1 (% UTC)
24 | 1074786 (kA*kA*k[5mC]*d[5mC]*dA*dT*dA*dA*dG*dT*dA*dG*dA*kT*k[5mC]*kT; antisense) [Compound 1074786] | 28
25 | 1075426 (antisense kG*kT*kA*dT*dT*dA*dT*dT*dA*dA*dT*d[5mC]*d[5mC]*kT*kG*kT) [Compound 1075426] | 49
26 | 1074690 (antisense k[5mC]*k[5mC]*kT*d[5mC]*d[5mC]*d[5mC]*d[5mC]*d[5mC]*dT*dA*dA*dG*d[5mC]*kT*kA*kA) [Compound 1074690] | 81
27 | 1075010 (antisense kA*kA*kT*dA*dA*dT*d[5mC]*dG*dA*dA*d[5mC]*dA*dT*kT*kG*kT) [Compound 1075010] | 88
28 | 1075202 (antisense kA*kA*kT*dT*dA*dT*dA*dT*dA*dA*dG*dG*d[5mC]*kT*kG*kT) [Compound 1075202] | 26
29 | 1074946 (antisense k[5mC]*k[5mC]*kA*dA*dA*dA*d[5mC]*d[5mC]*d[5mC]*dT*dT*dT*dG*kG*kT*k[5mC]) [Compound 1074946] | 109
30 | 1074850 (antisense kT*kT*kG*dT*dT*dA*dT*dG*dA*dT*dA*dG*dG*k[5mC]*kA*k[5mC]) [Compound 1074850] | 5

same assay, conditions: Table 17; A-431 cells, 5,000 cells per well, free uptake, 2,000 nM, approximately 48 hours; RTS4814; normalized to RIBOGREEN; Yap1 mRNA relative to untreated control cells

Row | Substance | YAP1 (% UTC)
31 | 1076515 (antisense k[5mC]*kT*kG*d[5mC]*dA*dA*dG*dA*dA*dT*dA*d[5mC]*dT*kT*kT*kA) [Compound 1076515] | 30
32 | 1076387 (kT*kG*kA*d[5mC]*dA*dA*d[5mC]*dA*d[5mC]*dA*dG*dT*dT*kA*kT*kA; antisense) [Compound 1076387] | 13
33 | 1075811 (kA*kT*kT*dG*dT*dA*dG*d[5mC]*dA*dA*dT*dA*dG*kA*kG*kT; antisense) [Compound 1075811] | 10
34 | 1076163 (kG*kA*kT*dA*dT*dA*dA*dG*dT*dT*dA*d[5mC]*d[5mC]*kA*kA*kT; antisense) [Compound 1076163] | 16
35 | 1074371 (antisense kG*kT*kT*dG*dA*dT*dA*dG*dT*dA*dT*d[5mC]*dA*k[5mC]*k[5mC]*kT) [Compound 1074371] | 31

same assay, conditions: Yap1 mRNA remaining as percent of untreated control; 3-10-3 cEt gapmers; A-431 cells; Table 36

Row | Substance | YAP1 (% UTC)
36 | 1075702 (kG*kA*kG*dG*dA*dA*dG*dG*dG*d[5mC]*dA*d[5mC]*d[5mC]*kT*kT*kT; antisense) [compound 1075702] | 81
37 | 1075894 (antisense k[5mC]*kT*k[5mC]*dG*dA*dA*dA*dG*d[5mC]*dT*dG*dG*dG*k[5mC]*k[5mC]*k[5mC]) [compound 1075894] | 100
38 | 1075318 (antisense kA*kT*k[5mC]*d[5mC]*dT*dA*dA*dA*dG*d[5mC]*d[5mC]*dA*d[5mC]*kT*kG*k[5mC]) [compound 1075318] | 72
39 | 1075414 (antisense k[5mC]*kA*kT*dA*d[5mC]*dT*dA*dA*dT*d[5mC]*d[5mC]*d[5mC]*dT*k[5mC]*kT*kT) [compound 1075414] | 41
40 | 1076278 (kA*kA*kT*dA*dA*dG*dG*dA*d[5mC]*dA*dG*dG*dA*k[5mC]*k[5mC]*k[5mC]; antisense) [compound 1076278] | 29
41 | 1075574 (antisense kA*kG*kT*d[5mC]*dA*dA*dG*dG*dA*dA*d[5mC]*d[5mC]*dT*kT*k[5mC]*kT) [compound 1075574] | 47
42 | 1076310 (kA*k[5mC]*k[5mC]*d[5mC]*dT*dA*dT*dA*d[5mC]*dT*dT*dG*dA*kA*kT*kT; antisense) [compound 1076310] | 36
43 | 1076342 (antisense k[5mC]*kA*kT*dT*dA*dA*d[5mC]*dT*dA*d[5mC]*dA*dA*d[5mC]*kT*kG*kT) [compound 1076342] | 33

same assay, conditions: Yap1 mRNA remaining as percent of untreated control; 3-10-3 cEt gapmers; A-431 cells; Table 37

Row | Substance | YAP1 (% UTC)
44 | 1076407 (antisense kG*kT*kA*dT*dT*dA*dT*dT*dT*dA*dA*dG*dA*k[5mC]*k[5mC]*kT) [compound 1076407] | 22
45 | 1075159 (k[5mC]*kA*kA*dA*dA*dA*dA*dT*d[5mC]*dA*d[5mC]*dG*dG*k[5mC]*kA*kA; antisense) [compound 1075159] | 63
46 | 1074551 (DNA kA*kA*kT*dA*dT*d[5mC]*dT*dA*d[5mC]*d[5mC]*dG*dT*dA*kT*kG*k[5mC]; antisense) [compound 1074551] | 58
47 | 1075447 (antisense k[5mC]*kA*k[5mC]*dT*dA*dT*dA*dA*dA*dT*d[5mC]*d[5mC]*dT*k[5mC]*kA*kT) [compound 1075447] | 96
48 | 1075703 (kG*kG*kA*dG*dA*dA*dA*dG*d[5mC]*d[5mC]*dA*dT*d[5mC]*kA*kA*kG; antisense) [compound 1075703] | 10
49 | 1074295 (antisense kT*kG*kG*dT*dT*dG*dG*dA*dG*dT*dT*dG*d[5mC]*kT*kG*k[5mC]) [compound 1074295] | 15
50 | 1074167 (antisense k[5mC]*kG*k[5mC]*dA*d[5mC]*d[5mC]*d[5mC]*d[5mC]*d[5mC]*dT*dG*dA*d[5mC]*k[5mC]*k[5mC]*kA) [compound 1074167] | 58
